In US6680336B2, “Cyclic AMP-specific phosphodiesterase inhibitors” (ICOS Corporation, priority 1999, dated 2004) one finds IC50 and EC50 data, which are given here for 24 compounds.

One experiment concerns the target T1, recombinant human PDE4.
T1 construct: PDE4 IC50; other: human recombinant PDE4
As to the kind of experiment: PDE4 inhibition, charcoal separation [32P]cAMP phosphodiesterase assay. The format is biochemical. How it is done:
The compounds of structural formula (II) were tested for an ability to inhibit PDE4. The ability of a compound to inhibit PDE4 activity is related to the IC50 value for the compound, i.e., the concentration of inhibitor required for 50% inhibition of enzyme activity. The IC50 value for compounds of structural formula (II) were determined using recombinant human PDE4.
Recombinant production of human PDE1B, PDE2, PDE4A, PDE4B, PDE4C, PDE4D, PDE5, and PDE7 was carried out similarly to that described in Example 7 of U.S. Pat. No. 5,702,936, incorporated herein by reference, except that the yeast transformation vector employed, which is derived from the basic ADH2 plasmid described in Price et al., Methods in Enzymology, 185, pp. 308-318 (1990), incorporated yeast ADH2 promoter and terminator sequences and the Saccharomyces cerevisiae host was the protease-deficient strain BJ2-54 deposited on Aug. 31, 1998 with the American Type Culture Collection, Manassas, Va., under accession number ATCC 74465. Transformed host cells were grown in 2×SC-leu medium, pH 6.2, with trace metals, and vitamins. After 24 hours, YEP medium-containing glycerol was added to a final concentration of 2×YET/3% glycerol. Approximately 24 hr later, cells were harvested, washed, and stored at −70° C.
Phosphodiesterase activity of the preparations was determined as follows. PDE assays utilizing a charcoal separation technique were performed essentially as described in Loughney et al. (1996). In this assay, PDE activity converts [32P]cAMP or [32P]cGMP to the corresponding [32P]5′-AMP or [32P]5′-GMP in proportion to the amount of PDE activity present. The [32P]5′-AMP or [32P]5′-GMP then was quantitatively converted to free [32P]phosphate and unlabeled adenosine or guanosine by the action of snake venom 5′-nucleotidase. […] The assay was performed at 30° C. in a 100 μL reaction mixture containing (final concentrations) 40 mM Tris HCl (pH 8.0), 1 μM ZnSO4, 5 mM MgCl2, and 0.1 mg/mL bovine serum albumin (BSA). Alternatively, in assays assessing PDE1-specific activity, incubation mixtures further incorporated the use of 0.1 mM CaCl2 and 10 μg/mL calmodulin. PDE enzyme was present in quantities that yield <30% total hydrolysis of substrate (linear assay conditions). The assay was initiated by addition of substrate (1 mM [32P]cAMP or cGMP), and the mixture was incubated for 12 minutes. Seventy-five (75) μg of Crotalus atrox venom then was added, and the incubation was continued for 3 minutes (15 minutes total). The reaction was stopped by addition of 200 μL of activated charcoal (25 mg/mL suspension in 0.1 M […], pH 4). After centrifugation (750×g for 3 minutes) to sediment the charcoal, a sample of the supernatant was taken for radioactivity determination in a scintillation counter and the PDE activity was calculated.
Inhibitor analyses were performed similarly to the method described in Loughney et al., J. Biol. Chem., 271, pp. 796-806 (1996), except both cGMP and cAMP were used, and substrate concentrations were kept below 32 nM, which is far below the Km of the tested PDEs.

Experiment [1] relates to TNFα secretion in human peripheral blood lymphocytes. Put plainly: Lipopolysaccharide-stimulated TNFα release from human peripheral blood lymphocytes. The format is cell-based. To be noted: Lymphocyte; LPS-stimulated TNFα release from human PBL. As to the method:
The compounds of structural formula (II) also were tested for an ability to reduce TNFα secretion in human peripheral blood lymphocytes. The ability to reduce TNFα secretion is related to the EC50 values i.e., the effective concentration pf the compound capable of inhibiting 50% of the total TNFα).
To assess the ability of a compound to reduce TNFα secretion in human peripheral blood lymphocytes (PBL), the following tests were performed.
Heparinized blood (approximately 30 mL) drawn from human volunteers was mixed 1:1 with Dulbecco's modified phosphate-buffered saline. This mixture was mixed 1:1 with HISTOPAQUE® and centrifuged at 1,500 rpm at room temperature without braking in the swinging bucket of a Beckman model TJ6 centrifuge. Erythrocytes were centrifuged to the bottom of the tubes, and serum remained at the surface of the tubes. A layer containing lymphocytes sedimented between the serum and HISTOPAQUE® layers, and was removed by aspiration to a fresh tube. The cells were quantified and adjusted to […] and a 100 μL aliquot is placed into the wells of a 96 well plate. Test compounds and RPMI media (Gibco/BRL Life Sciences) are added to each of the wells 15 minutes prior to addition of bacterial LPS ([…]). The mixture was allowed to incubate for 20 hours at 37° C. in a humidified chamber. The cells then were separated by centrifuging at 800 rpm for 5 minutes at room temperature. An aliquot of 180 μL of supernatant was transferred to a new plate for determination of TNFα concentration. TNFα protein in the cell supernatant fluids was measured using a commercially available enzyme-linked immunosorbent assay (ELISA) (CYTOSCREEN® Immunoassay Kit from Biosource International).
The cell-based assay provided the following results for various pyrrolidine compounds of the present invention. The EC50 values (i.e., effective concentration of the compound capable of inhibiting 50% of the total TNFα) illustrate the ability of the present compounds to inhibit LPS-stimulated TNFα release from human PBL.

With `COC(=O)N1C[C@@H](c2ccc(OC)c(OC3CCCC3)c2)[C@](C)(CNCc2ccccc2)C1` [Example 1, Methyl (4S,3R)-4-(3-cyclopentyloxy-4-methoxyphenyl)-3-methyl-3-{[benzylamino]methyl]}pyrrolidine carboxylate], the 50% inhibitory concentration (IC50) (in general, the point on the concentration scale where inhibition reaches its midpoint) on recombinant human PDE4 is 1400 nM. In addition, the concentration giving a half-maximal response (EC50) (commonly the concentration giving half of the maximal effect) in experiment [1] was 776 nM.
In the case of `COC(=O)N1C[C@@H](c2ccc(OC)c(OC3CCCC3)c2)[C@](C)(CN)C1` [Example 2, Methyl (4S,3R)-3-(aminomethyl)-4-(3-cyclopentyloxy-4-methoxyphenyl)-3-methylpyrrolidinecarboxylate], the IC50 on recombinant human PDE4 was found to be 28.5 nM. For the same compound, a half-maximal response in experiment [1] (EC50) required 142 nM.
As to `COC(=O)N1CC(c2ccc(OC)c(OC3CCCC3)c2)[C@](C)(CNS(C)(=O)=O)C1` (stereo partly drawn) [Example 3], at recombinant human PDE4, the 50% inhibitory concentration (IC50) amounted to 3180 nM.
As for `COC(=O)N1C[C@@H](c2ccc(OC)c(OC3CCCC3)c2)[C@](C)(CNC(C)=O)C1` [Example 4, Methyl (4S,3R)-3-[(acetylamino)methyl]-4-(3-cyclopentyloxy-4-methoxyphenyl)-3-methylpyrrolidine-carboxylate], the half-maximal inhibitory concentration (IC50) at recombinant human PDE4 amounted to 3090 nM.
For the compound `COC(=O)N1C[C@@H](c2ccc(OC)c(OC3CCCC3)c2)[C@](C)(CNC(=O)c2ccccc2)C1` [Example 5, Methyl (4S,3R)-4-(3-cyclopentyloxy-4-methoxyphenyl)-3-methyl-3-[(phenylcarbonylamino)methyl]pyrrolidinecarboxylate], the 50% inhibitory concentration (IC50) on recombinant human PDE4 was 2510 nM.
For `COC(=O)N1CC(c2ccc(OC)c(OC3CCCC3)c2)[C@](C)(CNS(=O)(=O)c2ccccc2)C1` (stereo partly drawn) [Example 6], the half-inhibitory concentration (IC50) at recombinant human PDE4 was 506 nM. The compound further registered a half-maximal effective concentration (EC50) in experiment [1] of 730 nM.
For `COc1ccc([C@@H]2CN(Cc3ccccc3)C[C@@]2(C)C(C)N)cc1OC1CCCC1` (stereo partly drawn) [Example 8, 1-[(3S,4S)-4-(3-Cyclopentyloxy-4-methoxyphenyl)-3-methyl-1-benzylpyrrolidin-3-yl]ethylamine] the same measures were 673 nM and 1560 nM.
With `COc1ccc([C@@H]2CN(Cc3ccccc3)C[C@@]2(C)C(C)NC(=O)c2ccccc2)cc1OC1CCCC1` (stereo partly drawn) [Example 10, N-{1-[(3S,4S)-4-(3-Cyclopentyloxy-4-methoxyphenyl)-3-methyl-1-benzylpyrrolidin-3-yl]ethyl}benzamide], the half-maximal inhibitory concentration (IC50) on recombinant human PDE4 was determined as 2950 nM.
For the compound `COc1ccc([C@@H]2CN(Cc3ccccc3)C[C@@]2(C)C(C)NC(=O)c2ccccc2)cc1OC1CCCC1` (stereo partly drawn) [Example 11, N-{1-[(3S,4S)-4-(3-Cyclopentyloxy-4-methoxyphenyl)-3-methyl-1-benzylpyrrolidin-3-yl]ethyl}benzamide], at recombinant human PDE4, the half-maximal inhibitory concentration (IC50) is 27100 nM.
In the case of `COc1ccc([C@@H]2CN(Cc3ccccc3)C[C@@]2(C)C(C)NC(C)=O)cc1OC1CCCC1` (stereo partly drawn) [Example 12, N-{1-[(3S,4S)-4-(3-Cyclopentyloxy-4-methoxyphenyl)-3-methyl-1-benzylpyrrolidin-3-yl]ethyl}acetamide], on recombinant human PDE4, the concentration for half-maximal inhibition (IC50) stood at 14700 nM.
Turning to `COc1ccc([C@@H]2CN(Cc3ccccc3)C[C@@]2(C)C(C)NC(C)=O)cc1OC1CCCC1` (stereo partly drawn) [Example 13, N-{1-[(3S,4S)-4-(3-Cyclopentyloxy-4-methoxyphenyl)-3-methyl-1-benzylpyrrolidin-3-yl]ethyl}acetamide], the IC50 on recombinant human PDE4 was 2440 nM.
In turn, `COC(=O)N1C[C@@H](c2ccc(OC)c(OC3CCCC3)c2)[C@](C)(C(C)NC(C)=O)C1` (stereo partly drawn) [Example 14, 3-(S)-(1-Acetylaminoethyl)-4-(S)-(3-cyclopentyloxy-4-methoxyphenyl)-3-methylpyrrolidine-1-carboxic Acid Methyl Ester] showed an EC50 in experiment [1] of 598 nM.
For `COc1ccc([C@@H]2CN(Cc3ccccc3)C[C@@]2(C)C(C)NS(=O)(=O)c2ccccc2)cc1OC1CCCC1` (stereo partly drawn) [Example 15, {1-[(3S,4S)-4-(3-Cyclopentyloxy-4-methoxyphenyl)-3-methyl-1-benzylpyrrolidin-3-yl]ethyl}-(phenylsulfonyl)amine], at recombinant human PDE4, the IC50 is 8970 nM.
The same measure, in the same setting: the value for `COc1ccc(C2CN(Cc3ccccc3)C[C@@]2(C)C(C)NS(=O)(=O)c2ccccc2)cc1OC1CCCC1` (stereo partly drawn) [Example 16, {1-[(3S,4S)-4-(3-cyclopentyloxy-4-methoxyphenyl)-3-methyl-1-benzylpyrrolidin-3-yl]ethyl}-(phenylsufonyl)amine] was 9080 nM.
On the same count and under the same terms, the value for `COc1ccc([C@@H]2CN(Cc3ccccc3)C[C@@]2(C)C(C)NS(C)(=O)=O)cc1OC1CCCC1` (stereo partly drawn) [Example 17, {1-[(3S,4S)-4-(3-Cyclopentyloxy-4-methoxyphenyl)-3-methyl-1-benzylpyrrolidin-3-yl]ethyl}-(methylsulfonyl)amine] was 8660 nM; that for `COc1ccc([C@@H]2CN(Cc3ccccc3)C[C@@]2(C)C(C)NS(C)(=O)=O)cc1OC1CCCC1` (stereo partly drawn) [Example 18, {1-[(3S,4S)-4-(3-Cyclopentyloxy-4-methoxyphenyl)-3-methyl-1-benzylpyrrolidin-3-yl]ethyl}-(methylsulfonyl)amine] was 7390 nM; that for `COC(=O)N1C[C@@H](c2ccc(OC)c(OC3CCCC3)c2)[C@](C)(CNC(=O)OC(C)(C)C)C1` [Example 21] was 2200 nM.
For the compound `COc1ccc(C2CN(Cc3ccccc3)C[C@]2(C)CN(C)C)cc1OC1CCCC1` (stereo partly drawn) [Example 22], the IC50 at recombinant human PDE4 is 5890 nM.
For `CNC[C@]1(C)CN(Cc2ccccc2)CC1c1ccc(OC)c(OC2CCCC2)c1` (stereo partly drawn) [Example 23], the IC50 at recombinant human PDE4 was determined as 7550 nM.
`COC(=O)N1C[C@@H](c2ccc(OC)c(OC3Cc4ccccc4C3)c2)[C@](C)(CN)C1` [Example 24]: the 50% inhibitory concentration (IC50) at recombinant human PDE4 was found to be 22.9 nM. Also, the EC50 in experiment [1] was determined as 76.5 nM.
As for `COC(=O)N1C[C@@H](c2ccc(OC)c(OCC3CC3)c2)[C@](C)(CN)C1` [Example 25], on recombinant human PDE4, the half-maximal inhibitory concentration (IC50) was 53 nM. This compound had an EC50 in experiment [1] of 85.5 nM.
`COc1ccc([C@@H]2CN(C(=O)C(C)(C)O)C[C@@]2(C)CN)cc1OCC1CC1` [Example 26]: at recombinant human PDE4, the IC50 was 235 nM. In experiment [1], this compound showed a concentration giving a half-maximal response (EC50) of 450 nM.
For `COc1ccc([C@@H]2CN(C(=O)CO)C[C@@]2(C)CN)cc1OCC1CC1` [Example 27] the same measures were 479 nM and 816 nM.
Consider `CCNC[C@]1(C)CN(C(=O)OC)C[C@H]1c1ccc(OC)c(OC2Cc3ccccc3C2)c1` [Example 28], for which, on recombinant human PDE4, the IC50 was found to be 591 nM. This compound also came in with an EC50 in experiment [1] of 1390 nM.
